Results from patent US4338122A, “Biocidal 2-aryl-1,3-cyclopentanedione compounds and alkali metal and ammonium salts thereof” (Union Carbide Corporation, priority 1980, dated 1982).
Values after ≈ are worked out from the molar mass of the structure shown.

Experiments:
Soybean = experiment: Post-emergent herbicidal test, soybean; assay type: in vivo; parameters: key: 1: no perceptible injury; 2: intermediate degrees of injury based upon the number and extent to which leaves were injured; 3: intermediate degrees of injury based upon the number and extent to which leaves were injured; 4: intermediate degrees of injury based upon the number and extent to which leaves were injured; 5: the plant was dead; conditions: 2500 parts per million, after ten days
Procedure: (§1) Suspensions of the test compounds were prepared by dissolving one gram of compound in 50 milliliters of acetone in which had been dissolved 0.1 gram (10 percent of the weight of compound) of an alkylphenoxyethoxyethanol surfactant, as an emulsifying or dispersing agent. The resulting solution was mixed into 160 milliliters of water to give roughly 200 milliliters of a suspension containing the compound in finely divided form. The thus prepared stock suspension contained 0.5 percent by weight of compound. The test concentrations employed in the tests described herein below were obtained by diluting the stock suspension with water. The test procedures were as follows:
(§2) Experiments were also conducted to determine the phytotoxicity of representative compositions with respect to healthy fresh plants. Solutions of the compounds were prepared as described above to provide a concentration of 2500 parts per million of the test compound. The test plants were sprayed in accordance with the procedure described above for the Mite Foliage Spray Test so as to deliver approximately 100 milliliters of test solutions to the leaves of each plant tested. The sprayed plants and controls were set aside for approximately one hour to allow the solutions to dry and were then placed in the greenhouse. After ten days the plants were visually inspected to determine the extent of foliage injury. A rating of 1 indicates no perceptible injury; 5 indicates the plant was dead and ratings of 2, 3 and 4 indicate intermediate degrees of injury based upon the number and extent to which leaves were injured.
(§3) Tests were conducted in accordance with the procedures given at pages 32 to 37 supra. The results are expressed in the same manner as used in Table I, except with respect to miticidal activity. For mite adult and mite egg comparison purposes, results are given in parts per million (ppm) required for a 50 percent kill of mites or eggs, respectively.

Crabgrass = experiment: Preliminary herbicide seed germination test (pre-emergent), crabgrass; assay type: in vivo, Digitaria sanguinalis; parameters: key: 5: no seedling emerged; 4: few seedlings emerged and/or very severe stunting; 3: moderate reduction in stand and/or moderate stunting; 2: very slight reduction in stand and/or slight stunting; 1: no injury; seedlings appear no different with respect to stand or growth than untreated controls; conditions: ten to twelve days after application
Procedure: as §1
(§4) The following seeds were used in this test:
Crabgrass--Digitaria sanguinalis
(§5) Two soil-seed mixtures were prepared as follows:
(§6) Each of the above mixtures was rolled separately in 5 gallon containers for approximately one-half hour on ball mill to insure uniform mixing of seeds and soil. For each compound four 3-inch pots were filled with soil to within 11/2 inches of top of pots. To two of these pots were added 70 cc. of Mixture I. To the remaining 2 pots were added 70 cc. of Mixture II. The seed-soil mixture was tamped firmly, and the pots were removed to the green-house and watered lightly. About 2 hours after planting, 25 milliliters of the test formulation were added to one pot containing Mixture I and one pot containing Mixture II. An equal volume of a water solution containing acetone and an emulsifier in the same concentration as the herbicidal mixture but without the candidate herbicide was also added to each of the soil-seed mixtures. These pots are used as check or control units. The test compounds were formulated by diluting the stock suspension with water to obtain the desired concentration of the compound in parts per million of the final formulation. Each compound was tested at the same concentration. […] Ratings were made according to the following designations:
as §3

Tomato = experiment: Post-emergent herbicidal test, tomato; assay type: in vivo; parameters: key: 1: no perceptible injury; 2: intermediate degrees of injury based upon the number and extent to which leaves were injured; 3: intermediate degrees of injury based upon the number and extent to which leaves were injured; 4: intermediate degrees of injury based upon the number and extent to which leaves were injured; 5: the plant was dead; conditions: 2500 parts per million, after ten days
Procedure: as §1, §2, §3

Perennial rye grass = experiment: Preliminary herbicide seed germination test (pre-emergent), rye grass; assay type: in vivo, Solium perenne; parameters: key: 5: no seedling emerged; 4: few seedlings emerged and/or very severe stunting; 3: moderate reduction in stand and/or moderate stunting; 2: very slight reduction in stand and/or slight stunting; 1: no injury; seedlings appear no different with respect to stand or growth than untreated controls; conditions: ten to twelve days after application
Procedure: as §1, §4
Perennial rye grass--Solium perenne
as §5, §6, §3

[1] = system: Red root pigweed (Amaranthus); experiment: Preliminary herbicide seed germination test (pre-emergent), Amaranthus; assay type: in vivo, Amaranthus retroflexus; parameters: key: 5: no seedling emerged; 4: few seedlings emerged and/or very severe stunting; 3: moderate reduction in stand and/or moderate stunting; 2: very slight reduction in stand and/or slight stunting; 1: no injury; seedlings appear no different with respect to stand or growth than untreated controls; conditions: ten to twelve days after application
Procedure: as §1, §4
Red root pigweed--Amaranthus retroflexus
as §5, §6, §3

[2] = system: two-spotted mite (Tetranychus urticae (Koch)), adults and nymphal stages; experiment: Mite Foliage Spray Test (adult miticidal); assay type: in vivo; parameters: key to Miticidal, Adult (control rating): A: Excellent Control; B: Partial Control; No Control; conditions: for Miticidal, Adult (control rating): Table I, mortality count four days after spraying; for LC50: Tetranychus urticae, foliar, Table II, read-out: Miticidal LD50, Adult (ppm required for a 50 percent kill of mites)
Procedure: as §1
Adults and nymphal stages of the two-spotted mite (Tetranychus urticae (Koch)), reared on Tendergreen bean plants at 80°±5° F. and 50±5 percent relative humidity, were the test organisms. Infested leaves from a stock culture were placed on the primary leaves of two bean plants six to eight inches in height, growing in a two-and-a-half inch clay pot. 150-200 Mites, a sufficient number for testing, transferred from the excised leaves to the fresh plants in a period of twenty-four hours. Following the twenty-four hour transfer period, the excised leaves were removed from the infested plants. The test compounds were formulated by diluting the stock suspension with water to provide suspensions containing the desired amount of test compound per million parts of final formulation. The potted plants (one pot per compound) were placed on a revolving turntable and sprayed with 100-110 milliliters of test compound formulation by use of a DeVilbis spray gun set at 40 psi. air pressure. This application, which lasted 30 seconds, was sufficient to wet the plants to run-off. As a control, 100-110 milliliters of a water solution containing acetone and emulsifier in the same concentrations as the test compound formulation, but containing no test compound, were also sprayed on infested plants. The sprayed plants were held at 80°±5° F. and 50±5 percent relative humidity for four days, after which, a mortality count of motile forms was made on the leaves of the test plants. Any individual which was capable of locomotion upon prodding was considered living.
In these tests the pesticidal activity of the compounds against mites and mite eggs were rated as follows:
as §3

Cc1ccc(C2C(=O)C3CCCCC3C2=O)c(C)c1 (stereo not drawn) [CH3 CH3 H (CH2)4, 2-(2',4'-dimethylphenyl)-4,5,6,7,8,9-hexahydro-1,3-indandione]
Post-Emergent Herbicidal, Soybean (injury rating) (Soybean; Table I): 5
Post-Emergent Herbicidal, Soybean (injury rating) (Soybean; Table II): 1
Pre-emergent Herbicidal, Crabgrass (injury rating) (Crabgrass; Table I): 5
Pre-emergent Herbicidal, Crabgrass (injury rating) (Crabgrass; Table II): 5
Post-Emergent Herbicidal, Tomato (injury rating) (Tomato; Table I): 2
Post-Emergent Herbicidal, Tomato (injury rating) (Tomato; Table II): 2
Pre-emergent Herbicidal, Rye (injury rating) (Perennial rye grass; Table I): 5
Pre-emergent Herbicidal, Rye (injury rating) (Perennial rye grass; Table II): 5
Pre-emergent Herbicidal, Amaranthus (injury rating) ([1]; Table I): 5
Pre-emergent Herbicidal, Amaranthus (injury rating) ([1]; Table II): 5
Miticidal, Adult (control rating) [2]: A
LC50 [2]: 7 µg/mL (≈ 27.3 µM)

Cc1ccc(C2C(=O)CCC2=O)c(C)c1 [CH3 CH3 H H H, 2-(2',4'-dimethylphenyl)-1,3-cyclopentanedione]
Post-Emergent Herbicidal, Soybean (injury rating) (Soybean; Table I): 1
Post-Emergent Herbicidal, Soybean (injury rating) (Soybean; Table II): 1
Pre-emergent Herbicidal, Crabgrass (injury rating) (Crabgrass; Table I): 5
Pre-emergent Herbicidal, Crabgrass (injury rating) (Crabgrass; Table II): 5
Post-Emergent Herbicidal, Tomato (injury rating) (Tomato; Table I): 1
Post-Emergent Herbicidal, Tomato (injury rating) (Tomato; Table II): 1
Pre-emergent Herbicidal, Rye (injury rating) (Perennial rye grass; Table I): 5
Pre-emergent Herbicidal, Rye (injury rating) (Perennial rye grass; Table II): 5
Pre-emergent Herbicidal, Amaranthus (injury rating) ([1]; Table I): 5
Pre-emergent Herbicidal, Amaranthus (injury rating) ([1]; Table II): 5
Miticidal, Adult (control rating) [2]: A
LC50 [2]: 15 µg/mL (≈ 74.2 µM)

Cc1ccc(C)c(C2C(=O)C3CCCCC3C2=O)c1 (stereo not drawn) [CH3 H CH3 (CH2)4, 2-(2',5'-dimethylphenyl)-4,5,6,7,8,9-hexahydro-1,3-indandione]
Post-Emergent Herbicidal, Soybean (injury rating) (Soybean; Table I): 1
Post-Emergent Herbicidal, Soybean (injury rating) (Soybean; Table II): 1
Pre-emergent Herbicidal, Crabgrass (injury rating) (Crabgrass; Table I): 1
Pre-emergent Herbicidal, Crabgrass (injury rating) (Crabgrass; Table II): 1
Post-Emergent Herbicidal, Tomato (injury rating) (Tomato; Table I): 1
Post-Emergent Herbicidal, Tomato (injury rating) (Tomato; Table II): 1
Pre-emergent Herbicidal, Rye (injury rating) (Perennial rye grass; Table I): 1
Pre-emergent Herbicidal, Rye (injury rating) (Perennial rye grass; Table II): 1
Pre-emergent Herbicidal, Amaranthus (injury rating) ([1]; Table I): 1
Pre-emergent Herbicidal, Amaranthus (injury rating) ([1]; Table II): 1
Miticidal, Adult (control rating) [2]: A
LC50 [2]: 35 µg/mL (≈ 137 µM)

Cc1ccc(C)c(C2C(=O)CC(C)C2=O)c1 (stereo not drawn) [CH3 H CH3 CH3 H, 2-(2',5'-Dimethylphenyl)-4-methyl-1,3-cyclopentanedione]
Post-Emergent Herbicidal, Soybean (injury rating) (Soybean; Table I): 2
Pre-emergent Herbicidal, Crabgrass (injury rating) (Crabgrass; Table I): 2
Post-Emergent Herbicidal, Tomato (injury rating) (Tomato; Table I): 2
Pre-emergent Herbicidal, Rye (injury rating) (Perennial rye grass; Table I): 4
Pre-emergent Herbicidal, Amaranthus (injury rating) ([1]; Table I): 3
Miticidal, Adult (control rating) [2]: A

Cc1ccc(C)c(C2C(=O)CCC2=O)c1 [CH3 H CH3 H H]
Post-Emergent Herbicidal, Soybean (injury rating) (Soybean; Table I): 3
Pre-emergent Herbicidal, Crabgrass (injury rating) (Crabgrass; Table I): 2
Post-Emergent Herbicidal, Tomato (injury rating) (Tomato; Table I): 1
Pre-emergent Herbicidal, Rye (injury rating) (Perennial rye grass; Table I): 4
Pre-emergent Herbicidal, Amaranthus (injury rating) ([1]; Table I): 3
Miticidal, Adult (control rating) [2]: A

Cc1ccccc1C1C(=O)C2CCCCC2C1=O (stereo not drawn) [CH3 H H (CH2)4, 2-(2'-Methylphenyl)-4,5,6,7,8,9-hexahydro-1,3 indandione]
Post-Emergent Herbicidal, Soybean (injury rating) (Soybean; Table I): 1
Post-Emergent Herbicidal, Soybean (injury rating) (Soybean; Table II): 1
Pre-emergent Herbicidal, Crabgrass (injury rating) (Crabgrass; Table I): 3
Pre-emergent Herbicidal, Crabgrass (injury rating) (Crabgrass; Table II): 3
Post-Emergent Herbicidal, Tomato (injury rating) (Tomato; Table I): 1
Post-Emergent Herbicidal, Tomato (injury rating) (Tomato; Table II): 1
Pre-emergent Herbicidal, Rye (injury rating) (Perennial rye grass; Table I): 5
Pre-emergent Herbicidal, Rye (injury rating) (Perennial rye grass; Table II): 5
Pre-emergent Herbicidal, Amaranthus (injury rating) ([1]; Table I): 3
Pre-emergent Herbicidal, Amaranthus (injury rating) ([1]; Table II): 3
Miticidal, Adult (control rating) [2]: A
LC50 [2]: 12 µg/mL (≈ 49.5 µM)

Cc1ccccc1C1C(=O)CCC1=O [CH3 H H H H, 2-(2'-methylphenyl)-1,3-cyclopentanedione]
Post-Emergent Herbicidal, Soybean (injury rating) (Soybean; Table I): 1
Post-Emergent Herbicidal, Soybean (injury rating) (Soybean; Table II): 1
Pre-emergent Herbicidal, Crabgrass (injury rating) (Crabgrass; Table I): 2
Pre-emergent Herbicidal, Crabgrass (injury rating) (Crabgrass; Table II): 2
Post-Emergent Herbicidal, Tomato (injury rating) (Tomato; Table I): 2
Post-Emergent Herbicidal, Tomato (injury rating) (Tomato; Table II): 2
Pre-emergent Herbicidal, Rye (injury rating) (Perennial rye grass; Table I): 5
Pre-emergent Herbicidal, Rye (injury rating) (Perennial rye grass; Table II): 5
Pre-emergent Herbicidal, Amaranthus (injury rating) ([1]; Table I): 1
Pre-emergent Herbicidal, Amaranthus (injury rating) ([1]; Table II): 1
Miticidal, Adult (control rating) [2]: A
LC50 [2]: 90 µg/mL (≈ 478 µM)

O=C1CCC(=O)C1c1ccc(Cl)cc1Cl [Cl Cl H H H, 2-(2',4'-Dichlorophenyl)-1,3-cyclopentanedione]
Post-Emergent Herbicidal, Soybean (injury rating) (Soybean; Table I): 1
Pre-emergent Herbicidal, Crabgrass (injury rating) (Crabgrass; Table I): 1
Post-Emergent Herbicidal, Tomato (injury rating) (Tomato; Table I): 1
Pre-emergent Herbicidal, Rye (injury rating) (Perennial rye grass; Table I): 1
Pre-emergent Herbicidal, Amaranthus (injury rating) ([1]; Table I): 1
Miticidal, Adult (control rating) [2]: A

O=C1CCC(=O)C1c1ccccc1Cl [Cl H H H H]
Post-Emergent Herbicidal, Soybean (injury rating) (Soybean; Table I): 1
Pre-emergent Herbicidal, Crabgrass (injury rating) (Crabgrass; Table I): 3
Post-Emergent Herbicidal, Tomato (injury rating) (Tomato; Table I): 1
Pre-emergent Herbicidal, Rye (injury rating) (Perennial rye grass; Table I): 5
Pre-emergent Herbicidal, Amaranthus (injury rating) ([1]; Table I): 1
Miticidal, Adult (control rating) [2]: B
